According to publication PMC10296281 (2023):

Experiments:
Assay in all cases: bio-layer interferometry, 1:1 local fit
[1] = system: Sequence 1 (original aptamer, 1 to 80) (DNA, aptamer) AGCAGCACAGAGGTCAGATGACTTCAGTGAGTTGTCCCACGGTCGGCGAGTCGGTGGTAGCCTATGCGTGCTACCGTGAA; details: 100 mM NaCl, 5 mM KCl, 2 mM MgCl2, 1 mM CaCl2; 20 mM Tris-HCl, 0.02 Tween 20, pH 7.6; R2 0.993
[2] = system: Sequence 2 (6 to 80) (DNA, aptamer) CACAGAGGTCAGATGACTTCAGTGAGTTGTCCCACGGTCGGCGAGTCGGTGGTAGCCTATGCGTGCTACCGTGAA; details: 100 mM NaCl, 5 mM KCl, 2 mM MgCl2, 1 mM CaCl2; 20 mM Tris-HCl, 0.02 Tween 20, pH 7.6; R2 0.973
[3] = system: Sequence 3 (1 to 75) (DNA, aptamer) AGCAGCACAGAGGTCAGATGACTTCAGTGAGTTGTCCCACGGTCGGCGAGTCGGTGGTAGCCTATGCGTGCTACC; details: 100 mM NaCl, 5 mM KCl, 2 mM MgCl2, 1 mM CaCl2; 20 mM Tris-HCl, 0.02 Tween 20, pH 7.6; R2 0.946
[4] = system: Sequence 4 (6 to 75) (DNA, aptamer) CACAGAGGTCAGATGACTTCAGTGAGTTGTCCCACGGTCGGCGAGTCGGTGGTAGCCTATGCGTGCTACC; details: 100 mM NaCl, 5 mM KCl, 2 mM MgCl2, 1 mM CaCl2; 20 mM Tris-HCl, 0.02 Tween 20, pH 7.6; R2 0.945
[5] = system: Sequence 5 (21 to 80) (DNA, aptamer) ACTTCAGTGAGTTGTCCCACGGTCGGCGAGTCGGTGGTAGCCTATGCGTGCTACCGTGAA; details: 100 mM NaCl, 5 mM KCl, 2 mM MgCl2, 1 mM CaCl2; 20 mM Tris-HCl, 0.02 Tween 20, pH 7.6; R2 0.924
[6] = system: Sequence 6 (1 to 60) (DNA, aptamer) AGCAGCACAGAGGTCAGATGACTTCAGTGAGTTGTCCCACGGTCGGCGAGTCGGTGGTAG; details: 100 mM NaCl, 5 mM KCl, 2 mM MgCl2, 1 mM CaCl2; 20 mM Tris-HCl, 0.02 Tween 20, pH 7.6; R2 0.905
[7] = system: Sequence 7 (21 to 60) (DNA, aptamer) ACTTCAGTGAGTTGTCCCACGGTCGGCGAGTCGGTGGTAG; details: 100 mM NaCl, 5 mM KCl, 2 mM MgCl2, 1 mM CaCl2; 20 mM Tris-HCl, 0.02 Tween 20, pH 7.6; R2 0.882
[8] = system: Sequence 8 (31 to 80) (DNA, aptamer) GTTGTCCCACGGTCGGCGAGTCGGTGGTAGCCTATGCGTGCTACCGTGAA; details: 100 mM NaCl, 5 mM KCl, 2 mM MgCl2, 1 mM CaCl2; 20 mM Tris-HCl, 0.02 Tween 20, pH 7.6; R2 0.853
[9] = system: Sequence 9 (1 to 50) (DNA, aptamer) AGCAGCACAGAGGTCAGATGACTTCAGTGAGTTGTCCCACGGTCGGCGAG; details: 100 mM NaCl, 5 mM KCl, 2 mM MgCl2, 1 mM CaCl2; 20 mM Tris-HCl, 0.02 Tween 20, pH 7.6; R2 0.914
[10] = system: Sequence 10 (31 to 50) (DNA, aptamer) GTTGTCCCACGGTCGGCGAG; details: 100 mM NaCl, 5 mM KCl, 2 mM MgCl2, 1 mM CaCl2; 20 mM Tris-HCl, 0.02 Tween 20, pH 7.6; R2 0.699 (poor fit)
[11] = system: Sequence 11 (41 to 80) (DNA, aptamer) GGTCGGCGAGTCGGTGGTAGCCTATGCGTGCTACCGTGAA; details: 100 mM NaCl, 5 mM KCl, 2 mM MgCl2, 1 mM CaCl2; 20 mM Tris-HCl, 0.02 Tween 20, pH 7.6; R2 0.757

O=C(N[C@H](CO)[C@H](O)c1ccc([N+](=O)[O-])cc1)C(Cl)Cl
Kd [1]: 704 nM | Kd [2]: 877 nM | Kd [3]: 645 nM | Kd [4]: 661 nM | Kd [5]: 1712 nM | Kd [6]: 4014 nM | Kd [7]: 370 nM | Kd [8]: 153 nM | Kd [9]: 92 nM | Kd [10]: 3109 nM | Kd [11]: 426 nM
